Assay results reported in patent publication US20120232062A1, “AZAINDAZOLES TO TREAT FLAVIVIRIDAE VIRUS INFECTION” (EIGER BIOPHARMACEUTICALS, INC., priority 2009, published 2012).

Experiments:
FTase = FTase (Homo sapiens, UniProt P49356); conditions: cited from earlier work
HCV genotype 1b = test: HCV 1b replicon luciferase assay; type: cell-based; conditions: Hepatitis C virus, Huh-7, 48 h, Table 1; Huh7 HCV 1b replicon, luciferase reporter, 48 hours; read-out: 1b EC50
Summary of the method: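 Luminescence (Steady-Glo) served as the replication read-out after 48 h compound exposure of 1b replicon-luciferase Huh7 cells seeded at 10k/well. Dosing used 5-fold serial dilutions, 10 concentrations, top 25 μM final, 0.1% DMSO, duplicates.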

hERG channel = biological target: T1, hERG channel (Homo sapiens, UniProt Q12809); test: hERG channel assay; type: cell-based; conditions: CHO cell line expressing hERG, whole cell recordings
T1 construct: host or cells: CHO (Chinese Hamster Ovary), stably transfected
Experimental: The most common mechanism for these adverse events is the inhibition of one or more cardiac potassium channels, in particular hERG. This current is important for cardiac myocyte repolarization and is a common target for drugs that prolong the QT interval. Test articles in this study were therefore characterized to determine their ability to inhibit the hERG channel. Ion channel activity was measured using a stably transfected Chinese Hamster Ovary (CHO) cell line expressing the hERG mRNA. The pharmacology of this cloned channel expressed in the CHO cell line is very similar to that observed in native tissue.
Cells: AVIVA's CHO cell line, which stably expresses hERG channels, was used for the study. Cells were cultured in DMEM/F12 containing 10% FBS, 1% penicillin/streptomycin and 500 μg/ml G418. Before testing, cells were harvested using Accumax (Innovative Cell Technologies).
Solutions: For electrophysiological recordings, the following solutions were used. External Solution: 2 mM CaCl2; 2 mM MgCl2; 4 mM KCl; 150 mM NaCl; 10 mM Glucose; 10 mM HEPES; 310-320 mOsm; pH 7.4 (adjusted with 1M NaOH). Internal Solution: 140 mM KCl; 10 mM MgCl2; 6 mM EGTA; 5 mM HEPESNa; […]; 300-320 mOsm; pH 7.25 (adjusted with 1M KOH).
Electrophysiology: Whole cell recordings were performed using PX 7000A (Axon Instruments) with VIVA's SealChip™ technology. Cells were voltage clamped at a holding potential of −80 mV. The hERG current was then activated by a depolarizing step to −50 mV for 300 ms. This first step at −50 mV was used as a baseline for measuring peak amplitude of the tail current. Next, a voltage step to +20 mV was applied for 5 s to activate the channels. Finally a step back to −50 mV for 5 seconds removed activation and the deactivating tail current was recorded.
Compound Handling and Dilutions: All compounds were prepared from either 10 or 30 mM DMSO stock solutions. Solutions were mixed by sonication for 20 min, followed by vigorous vortexing. Prior to testing, compounds were diluted to test concentrations in glass vials using External Solution. Dilutions were prepared no longer than 20 min prior to use. Equal amounts of DMSO (0.1%) were present in all final dilutions.
Electrophysiology Procedures: After achieving whole cell configuration, cells were monitored for 90 s to assess stability and then washed with External Solution for 66 s. The voltage protocol described above was then applied to the cells every 12 s throughout the procedure. Only stable cells with recording parameters above threshold (see Quality Control section) were allowed to enter the drug addition procedure. External solution containing 0.1% DMSO (vehicle) was applied to the cells to establish a baseline. After allowing the current to stabilize for 3 to 5 min, test articles were applied. Test article solutions were added to cells in 4 separate additions. Cells were kept in test solution until effect of the test article reached steady state, to a maximum of 12 min. Next, 1 μM cisapride (positive control) was added. Finally, washout with External Solution was performed until the recovery current reached a steady state.
Data Analysis: Data analysis was performed using DataXpress (Axon Instruments), Clampfit (Axon Instruments) and Origin (Originlab Corporation) software.

[1] = Liver microsome stability, human; type: in vitro ADME
From the text: (§1) Metabolic stability assays are designed to measure the stability of a test compound in a variety of assay matrices from human and animal species. From a metabolism perspective, a drug would be relatively stable, have a small first-pass effect, and maintain an effective concentration in blood for a reasonable period of time. A microsomal preparation from the liver contains all CYP isozymes and other membrane-bound drug metabolizing enzymes which are responsible for the metabolism for the majority of drugs in humans. Metabolic stability in liver microsomes can determine half-life (T1/2) and intrinsic clearance (Clint). The determination of Clint may be useful to determine whether metabolism is the major elimination pathway when it is compared to total body clearance in vivo. For high metabolic stability in liver microsomes: […] Human, Sprague Dawley rat, and CD-1 mouse liver microsome samples were purchased from BD Gentest. An in vitro metabolic stability assay suitable for use in predicting first pass metabolism of the compounds useful in the methods of the invention is described in this example. […] 6 mM NADPH in 0.1 M K-phosphate buffer is prepared by dissolving 25.1 mg of NADPH tetrasodium salt in 5 mL of K-phosphate buffer. […] The plate is pre-incubated at 37° C. for 10 minutes. 15 μL of NADPH stock solution (6 mM) is added to the wells designated for Time 60 and timed. At 30 min, 15 min, and 5 min, 15 μL of NADPH stock solution (6 mM) is added to the wells. At the end of incubation, 135 μL of ACN containing IS is added to all the wells (60 min, 30 min, 15 min, 5 min and 0 min). Then 15 μL of NADPH stock solution (6 mM) is added to the wells designated as Time 0.

[2] = Liver microsome stability, rat; type: in vitro ADME, Sprague Dawley rat
From the text: as §1

[3] = Liver microsome stability, mouse; type: in vitro ADME, CD-1 mouse
From the text: as §1

T1 sequence (Q12809 whole entry): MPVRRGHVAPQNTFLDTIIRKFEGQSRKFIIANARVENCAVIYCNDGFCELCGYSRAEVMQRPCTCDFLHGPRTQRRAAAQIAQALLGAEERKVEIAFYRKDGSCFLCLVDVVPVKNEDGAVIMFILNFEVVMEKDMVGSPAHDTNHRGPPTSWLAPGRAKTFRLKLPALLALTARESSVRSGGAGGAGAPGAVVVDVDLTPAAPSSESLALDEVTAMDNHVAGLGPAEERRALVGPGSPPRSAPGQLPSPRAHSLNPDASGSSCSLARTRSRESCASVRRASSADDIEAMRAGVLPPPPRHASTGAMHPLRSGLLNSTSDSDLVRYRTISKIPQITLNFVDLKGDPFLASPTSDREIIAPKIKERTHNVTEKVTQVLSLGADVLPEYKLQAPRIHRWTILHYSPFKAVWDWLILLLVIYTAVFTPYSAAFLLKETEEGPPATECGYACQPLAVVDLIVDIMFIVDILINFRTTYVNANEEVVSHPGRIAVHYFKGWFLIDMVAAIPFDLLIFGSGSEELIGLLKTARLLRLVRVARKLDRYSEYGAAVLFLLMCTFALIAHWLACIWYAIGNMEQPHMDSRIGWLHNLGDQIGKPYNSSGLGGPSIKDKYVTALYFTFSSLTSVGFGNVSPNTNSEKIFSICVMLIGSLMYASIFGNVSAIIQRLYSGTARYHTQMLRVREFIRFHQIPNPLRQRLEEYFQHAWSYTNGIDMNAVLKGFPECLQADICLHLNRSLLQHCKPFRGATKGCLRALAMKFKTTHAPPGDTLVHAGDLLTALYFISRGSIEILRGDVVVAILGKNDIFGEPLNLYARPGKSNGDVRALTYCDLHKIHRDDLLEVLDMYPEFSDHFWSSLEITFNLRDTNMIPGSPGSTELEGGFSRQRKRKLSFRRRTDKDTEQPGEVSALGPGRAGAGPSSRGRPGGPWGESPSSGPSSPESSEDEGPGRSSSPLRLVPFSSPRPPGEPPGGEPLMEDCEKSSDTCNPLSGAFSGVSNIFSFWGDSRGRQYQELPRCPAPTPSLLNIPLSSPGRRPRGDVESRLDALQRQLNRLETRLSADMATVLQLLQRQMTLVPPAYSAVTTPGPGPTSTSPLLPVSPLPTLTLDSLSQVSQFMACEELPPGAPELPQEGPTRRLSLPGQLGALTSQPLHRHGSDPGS

For `Cn1cncc1C(N)(c1ccc(Cl)cc1)c1ccc2c(c1)c(-c1cccc(Cl)c1)cc(=O)n2C` (stereo not drawn) [Tipifarnib, 6-[Amino(4-chlorophenyl)-1-methyl-1H-imidazol-5-ylmethyl]-4-(3-chlorophenyl)-1-methyl-2(1H)-quinolinone], which IC50 (FTase) is on record?
The IC50 was 0.86 nM.

What does the source list for `O=C(NC1CCNCC1)c1n[nH]c2nc(N3CCCCCC3)ccc12` [compound 655]?
EC50 (HCV genotype 1b): 2100 to 3500 nM; IC50 (hERG channel): 1340 nM

With `Cn1nc(N)c2ccc(N3CCCCCC3)nc21` [compound 658] as the compound, how does the EC50 (HCV genotype 1b) read?
The EC50 was 400 to 2200 nM.

And the IC50 (hERG channel)?
The IC50 was over 10000 nM.

Which EC50 (HCV genotype 1b) does the source give for `Cn1nc(NC(=O)c2cccs2)c2ccc(N3CCCCCC3)nc21` [compound 659] here?
Its EC50 is 1800 to 4900 nM.

What about the IC50 (hERG channel) of the same compound?
Its IC50 is over 10000 nM.

With `O=C(Nc1n[nH]c2nc(N3CCCCCC3)ccc12)C1CCNCC1` [compound 680] as the compound, how does the EC50 (HCV genotype 1b) read?
The EC50 was 4100 nM.

What about the IC50 (hERG channel) of the same compound?
The IC50 was over 10000 nM.

What does the source list for `Cn1nc(C(=O)Nc2ccncc2)c2ccc(N3CCCCCC3)nc21` [compound 701]?
EC50 (HCV genotype 1b): 1100 nM; IC50 (hERG channel): > 10000 nM

Which results are given for `O=C(NCC1CCNCC1)c1n[nH]c2nc(N3CCCCCC3)ccc12` [compound 702]?
EC50 (HCV genotype 1b): 3400 nM; IC50 (hERG channel): > 10000 nM

With `O=C(NCC1CCCNC1)c1n[nH]c2nc(N3CCCCCC3)ccc12` (stereo not drawn) [compound 703] as the compound, how does the EC50 (HCV genotype 1b) read?
The EC50 was 2200 nM.

What about the IC50 (hERG channel) of the same compound?
Its IC50 is 8800 nM.

Which EC50 (HCV genotype 1b) does the source give for `O=C(NC1CCNCC1)c1n[nH]c2nc(OC3CCCCC3)ccc12` [compound 729] here?
The EC50 was 1800 nM.

What about the IC50 (hERG channel) of the same compound?
The IC50 was over 10000 nM.

For `CC(C)CN(C)c1ccc2c(C(=O)NC3CCNCC3)n[nH]c2n1` [compound 738], which EC50 (HCV genotype 1b) is on record?
The EC50 was 2200 nM.

And the IC50 (hERG channel)?
Its IC50 is over 10000 nM.

What does the source list for `O=C(NC1CCNCC1)c1n[nH]c2nc(O)ccc12` [compound 744]?
EC50 (HCV genotype 1b): 1500 nM; IC50 (hERG channel): > 10000 nM

With `O=C(Nc1nn(Cc2ccc(Cl)cc2)c2nc(N3CCCCCC3)ccc12)C1CCCNC1` (stereo not drawn) [compound 745] as the compound, how does the EC50 (HCV genotype 1b) read?
The EC50 was 3000 nM.

What about the IC50 (hERG channel) of the same compound?
The IC50 was over 10000 nM.

For `CCC(CC)Oc1ccc2c(COCC3CCNCC3)nn(Cc3ccc(Cl)cc3)c2n1` [compound 756], which EC50 (HCV genotype 1b) is on record?
The EC50 was 2200 nM.

What about the IC50 (hERG channel; human, CHO cells stably expressing hERG, pH 7.4) of the same compound?
The IC50 was 10000 nM.

What does the source list for `Cn1nc(C(=O)NC2CCN(CC3CCCCC3)CC2)c2ccc(N3CCCCCC3)nc21` [compound 987]?
EC50 (HCV genotype 1b): 550 nM; IC50 (hERG channel): 880 nM

Which EC50 (HCV genotype 1b) does the source give for `CC1CCC(C)N1CCOCc1nn(C)c2nc(N3CCCCCC3)ccc12` (stereo not drawn) [compound 1540] here?
The EC50 was 2700 nM.

What about the “human liver microsome (HLM, % parent remaining)” value ([1]; after 15 min) of the same compound?
The value was 17 % parent remaining.

And the “human liver microsome (HLM, % parent remaining)” value ([1]; after 30 min)?
The value was 9 % parent remaining.

What about the “human liver microsome (HLM, % parent remaining)” value ([1]; after 60 min) of the same compound?
The value was 4 % parent remaining.

What about the “rat liver microsome (RLM), % parent remaining” value ([2]; after 15 min) of the same compound?
The value was 17 % parent remaining.

What about the “rat liver microsome (RLM), % parent remaining” value ([2]; after 30 min) of the same compound?
The value was 2 % parent remaining.

And the “rat liver microsome (RLM), % parent remaining” value ([2]; after 60 min)?
Its value is 4 % parent remaining.

And the “mouse liver microsome (MLM), % parent remaining” value ([3]; after 15 min)?
The value was 34 % parent remaining.

What about the “mouse liver microsome (MLM), % parent remaining” value ([3]; after 30 min) of the same compound?
Its value is 18 % parent remaining.

And the “mouse liver microsome (MLM), % parent remaining” value ([3]; after 60 min)?
The value was 10 % parent remaining.

Which EC50 (HCV genotype 1b) does the source give for `CC1CCCCN1CCOCc1nn(C)c2nc(N3CCCCCC3)ccc12` (stereo not drawn) [compound 1549] here?
The EC50 was 4000 nM.

And the “human liver microsome (HLM, % parent remaining)” value ([1]; after 15 min)?
The value was 16 % parent remaining.

And the “human liver microsome (HLM, % parent remaining)” value ([1]; after 30 min)?
Its value is 11 % parent remaining.

And the “human liver microsome (HLM, % parent remaining)” value ([1]; after 60 min)?
The value was 13 % parent remaining.

What about the “rat liver microsome (RLM), % parent remaining” value ([2]; after 15 min) of the same compound?
The value was 52 % parent remaining.

What about the “rat liver microsome (RLM), % parent remaining” value ([2]; after 30 min) of the same compound?
The value was 31 % parent remaining.

What about the “rat liver microsome (RLM), % parent remaining” value ([2]; after 60 min) of the same compound?
Its value is 17 % parent remaining.

What about the “mouse liver microsome (MLM), % parent remaining” value ([3]; after 15 min) of the same compound?
Its value is 27 % parent remaining.

What about the “mouse liver microsome (MLM), % parent remaining” value ([3]; after 30 min) of the same compound?
The value was 17 % parent remaining.

And the “mouse liver microsome (MLM), % parent remaining” value ([3]; after 60 min)?
The value was 13 % parent remaining.

Which EC50 (HCV genotype 1b) does the source give for `Cn1nc(C(=O)NC2CCN(CCN3CCCCC3CO)CC2)c2ccc(N3CCCCCC3)nc21` (stereo not drawn) [compound 1559] here?
Its EC50 is 1800 nM.

What about the “human liver microsome (HLM, % parent remaining)” value ([1]; after 15 min) of the same compound?
The value was 65 % parent remaining.

And the “human liver microsome (HLM, % parent remaining)” value ([1]; after 30 min)?
Its value is 32 % parent remaining.

What about the “human liver microsome (HLM, % parent remaining)” value ([1]; after 60 min) of the same compound?
Its value is 7 % parent remaining.

What about the “rat liver microsome (RLM), % parent remaining” value ([2]; after 15 min) of the same compound?
Its value is 57 % parent remaining.

And the “rat liver microsome (RLM), % parent remaining” value ([2]; after 30 min)?
The value was 31 % parent remaining.

What about the “rat liver microsome (RLM), % parent remaining” value ([2]; after 60 min) of the same compound?
The value was 8 % parent remaining.

What about the “mouse liver microsome (MLM), % parent remaining” value ([3]; after 15 min) of the same compound?
The value was 54 % parent remaining.

And the “mouse liver microsome (MLM), % parent remaining” value ([3]; after 30 min)?
The value was 27 % parent remaining.

And the “mouse liver microsome (MLM), % parent remaining” value ([3]; after 60 min)?
Its value is 5 % parent remaining.
